#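 Five concentrations, 48 hours, 96-well plates. GI50 marks 50% less growth.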 Activity calls are given as the source filed them. Rule as the data show it: active = GI50 up to about 1.1 µM and inactive = higher.
# Tests used:
# Assay in all cases: NCI-60 cell line screen, 48 h
# [1] = test system: 786-0
# [2] = test system: A498
# [3] = test system: A549
# [4] = test system: ACHN
# [5] = test system: BT-549
# [6] = test system: CAKI-1
# [7] = test system: CCRF-CEM
# [8] = test system: COLO 205
# [9] = test system: DU-145
# [10] = test system: EKVX
# [11] = test system: HCC 2998
# [12] = test system: HCT-116
# [13] = test system: HCT-15
# [14] = test system: HL-60
# [15] = test system: HOP-62
# [16] = test system: HOP-92
# [17] = test system: HT-29
# [18] = test system: Hs-578T
# [19] = test system: IGROV-1
# [20] = test system: K562
# [21] = test system: KM12
# [22] = test system: LOX IMVI
# [23] = test system: M14
# [24] = test system: MCF7
# [25] = test system: MDA-MB-231
# [26] = test system: MDA-MB-435
# [27] = test system: MDA-N
# [28] = test system: MOLT-4
# [29] = test system: Malme-3M
# [30] = test system: NCI-H226
# [31] = test system: NCI-H23
# [32] = test system: NCI-H460
# [33] = test system: NCI-H522
# [34] = test system: NCI/ADR-RES
# [35] = test system: OVCAR-3
# [36] = test system: OVCAR-4
# [37] = test system: OVCAR-5
# [38] = test system: OVCAR-8
# [39] = test system: PC-3
# [40] = test system: RPMI-8226
# [41] = test system: RXF 393
# [42] = test system: SF-268
# [43] = test system: SF-295
# [44] = test system: SF-539
# [45] = test system: SK-MEL-28
# [46] = test system: SK-MEL-2
# [47] = test system: SK-MEL-5
# [48] = test system: SK-OV-3
# [49] = test system: SN12C
# [50] = test system: SNB-19
# [51] = test system: SNB-75
# [52] = test system: SW-620
# [53] = test system: T47D
# [54] = test system: TK-10
# [55] = test system: U-251
# [56] = test system: UACC-257
# [57] = test system: UACC-62
# [58] = test system: UO-31
smiles,measurement,setting,value
CC(C)Cn1cnnc1NS(=O)(=O)c1cc(C(=O)NN)c(Cl)cc1S,GI50,[1],> 10 µM (inactive)
same,GI50,[2],> 10 µM (inactive)
same,GI50,[3],> 10 µM (inactive)
same,GI50,[4],> 10 µM (inactive)
same,GI50,[5],> 10 µM (inactive)
same,GI50,[6],> 10 µM (inactive)
same,GI50,[7],> 10 µM (inactive)
same,GI50,[8],> 10 µM (inactive)
same,GI50,[9],> 10 µM (inactive)
same,GI50,[10],> 10 µM (inactive)
same,GI50,[11],> 10 µM (inactive)
same,GI50,[12],> 10 µM (inactive)
same,GI50,[13],> 10 µM
same,GI50,[14],> 10 µM (inactive)
same,GI50,[15],> 10 µM (inactive)
same,GI50,[16],> 10 µM (inactive)
same,GI50,[17],> 10 µM (inactive)
same,GI50,[18],> 10 µM (inactive)
same,GI50,[19],> 10 µM (inactive)
same,GI50,[20],> 10 µM (inactive)
same,GI50,[21],> 10 µM (inactive)
same,GI50,[22],> 10 µM (inactive)
same,GI50,[23],> 10 µM (inactive)
same,GI50,[24],> 10 µM (inactive)
same,GI50,[25],> 10 µM (inactive)
same,GI50,[26],> 10 µM (inactive)
same,GI50,[27],> 10 µM (inactive)
same,GI50,[28],> 10 µM (inactive)
same,GI50,[29],> 10 µM (inactive)
same,GI50,[30],> 10 µM (inactive)
same,GI50,[31],> 10 µM (inactive)
same,GI50,[32],> 10 µM (inactive)
same,GI50,[33],> 10 µM (inactive)
same,GI50,[34],> 10 µM (inactive)
same,GI50,[35],> 10 µM (inactive)
same,GI50,[36],> 10 µM (inactive)
same,GI50,[37],> 10 µM (inactive)
same,GI50,[38],> 10 µM (inactive)
same,GI50,[39],> 10 µM (inactive)
same,GI50,[40],> 10 µM (inactive)
same,GI50,[41],> 10 µM (inactive)
same,GI50,[42],> 10 µM (inactive)
same,GI50,[43],> 10 µM (inactive)
same,GI50,[44],> 10 µM (inactive)
same,GI50,[45],> 10 µM (inactive)
same,GI50,[46],> 10 µM (inactive)
same,GI50,[47],> 10 µM (inactive)
same,GI50,[48],> 10 µM (inactive)
same,GI50,[49],> 10 µM (inactive)
same,GI50,[50],> 10 µM (inactive)
same,GI50,[51],> 10 µM (inactive)
same,GI50,[52],> 10 µM (inactive)
same,GI50,[53],> 10 µM (inactive)
same,GI50,[54],> 10 µM (inactive)
same,GI50,[55],> 10 µM (inactive)
same,GI50,[56],> 10 µM (inactive)
same,GI50,[57],> 10 µM (inactive)
O=C1c2ccccc2C(=O)c2c1ccc(C1C(=O)c3ccccc3C1=O)c2-c1c(C2C(=O)c3ccccc3C2=O)ccc2c1C(=O)c1ccccc1C2=O,GI50,[1],> 100 µM (inactive)
same,GI50,[2],> 100 µM (inactive)
same,GI50,[3],> 100 µM (inactive)
same,GI50,[4],> 100 µM (inactive)
same,GI50,[5],> 100 µM (inactive)
same,GI50,[6],> 100 µM (inactive)
same,GI50,[8],> 100 µM (inactive)
same,GI50,[9],> 100 µM (inactive)
same,GI50,[10],> 100 µM (inactive)
same,GI50,[12],> 100 µM (inactive)
same,GI50,[13],> 100 µM
same,GI50,[14],7.89 µM (inactive)
same,GI50,[15],> 100 µM (inactive)
same,GI50,[16],> 100 µM (inactive)
same,GI50,[17],> 100 µM (inactive)
same,GI50,[18],> 100 µM (inactive)
same,GI50,[19],> 100 µM (inactive)
same,GI50,[20],36.6 µM (inactive)
same,GI50,[21],> 100 µM (inactive)
same,GI50,[22],74.3 µM (inactive)
same,GI50,[23],> 100 µM (inactive)
same,GI50,[24],> 100 µM (inactive)
same,GI50,[25],47.3 µM (inactive)
same,GI50,[26],> 100 µM (inactive)
same,GI50,[27],> 100 µM (inactive)
same,GI50,[28],19 µM (inactive)
same,GI50,[29],> 100 µM (inactive)
same,GI50,[30],> 100 µM (inactive)
same,GI50,[32],> 100 µM (inactive)
same,GI50,[33],> 100 µM (inactive)
same,GI50,[34],> 100 µM (inactive)
same,GI50,[35],> 100 µM (inactive)
same,GI50,[36],> 100 µM (inactive)
same,GI50,[37],> 100 µM (inactive)
same,GI50,[38],> 100 µM (inactive)
same,GI50,[39],> 100 µM (inactive)
same,GI50,[40],13.1 µM (inactive)
same,GI50,[41],> 100 µM (inactive)
same,GI50,[42],> 100 µM (inactive)
same,GI50,[43],> 100 µM (inactive)
same,GI50,[44],> 100 µM (inactive)
same,GI50,[45],> 100 µM (inactive)
same,GI50,[46],> 100 µM (inactive)
same,GI50,[47],> 100 µM (inactive)
same,GI50,[48],> 100 µM (inactive)
same,GI50,[49],> 100 µM (inactive)
same,GI50,[50],> 100 µM (inactive)
same,GI50,[51],> 100 µM (inactive)
same,GI50,[52],15.3 µM (inactive)
same,GI50,[53],> 100 µM (inactive)
same,GI50,[54],> 100 µM (inactive)
same,GI50,[55],> 100 µM (inactive)
same,GI50,[56],> 100 µM (inactive)
same,GI50,[57],> 100 µM (inactive)
same,GI50,[58],> 100 µM (inactive)
